Assay results reported in patent US10092000B2, “Structure, synthesis, and applications for oligo phenylene ethynylenes (OPEs)” (STC.UNM, priority 2010, dated 2018).
Several values for one entry are separate records, joined by “and”; a condition that tells them apart may be missing. Identical values can stand only once. Entries after “also recorded” stand apart in the source; their conditions may differ.

Columns and labels:
[1] = test system: E.coli, S.epidermis, and S.aureus; assay: Dead/live assays, biocidal activity stated without singling out a bacterium; assay type: cell-based; conditions: UV irradiation
Protocol: (§1) Dead/live assays were performed to test the biocidal activity of EO-OPE-1(C3, A), EO-OPE-1 (C2, A), EO-OPE-1 (C3, S) and EO-OPE-1 (Th, C3, A) against E.coli, S.epidermis, and S.aureus. E.coli, S.epidermis, and S.aureus were cultured in 50 mL of Difco™ Nutrient broth (LOT 4057492, Becton, Dickinson and Company, Sparks, Md. 21152 USA), Difco™ Nutrient broth (LOT 4057492, Becton, Dickinson and Company, Sparks, Md. 21152 USA), and BBL™ Brain Heart Infusion (LOT 8263271, Becton, Dickinson and Company, Sparks, Md. 21152 USA), respectively, for 18 h at 37° C. under shaking. The bacteria were collected by centrifuging 50 mL of culture at 4,000 rpm in an Eppendorf centrifuge for 15 min at 4° C. The pellet was re-suspended with the assistance of vortex in 25 mL of 0.85% NaCl solution and repelleted. The wash cycle was repeated twice. Bacterial concentrations were measured and normalized using a disposal hemocytometer (INCYTO Co., Ltd), counts being 2.5˜3.0×10^7/mL. The diluted bacteria suspension was added to 1.5 mL of black and transparent microtubes in aliquots of 500 μL for dark and light samples, respectively. Three groups of live controls were prepared with cells suspended in black microtubes, transparent microtubes, and quartz cuvettes at the same concentrations, but without chemicals. These bacteria samples were titrated by OPEs with various concentrations followed by staying in dark for dark samples/controls and exposing to UV irradiation in a photoreactor chamber for light samples/controls with certain duration.
(§2) Dead/live assays were carried out using two sets of stains: SYTO 9/Propidium iodide for E.coli and SYTO 24/Propidium iodide for S.epidermis and S.aureus. SYTO 9 and SYTO 24 are cell membrane permeant nucleic acid stains with green (˜498 nm for SYTO 9 and ˜515 nm for SYTO 24) fluorescence and used to stain both live and dead cells; Propidium iodide is a red-fluorescent nucleic acid stain that is membrane impermeable to viable cells but stains DNA or RNA of dead cells with comprised membranes and emits red (˜617 nm) fluorescence, indicating cell death. Upon the completion of the above treatment, a 1 to 1 ratio mixture of the two dyes was prepared and added into the samples (2.4 μL mixed dyes for 500 μL suspension) and incubated for 15 minutes in the dark. Bacteria were then examined under a 40× oil objective on a Zeiss LSM 510 Meta confocal laser scanning microscope and an Accuri C6 flow cytometer to identify and quantify those live and dead bacteria.

[2] = Solubility in solvents; assay type: physicochemical
[3] = Absorption and fluorescence spectroscopy; assay type: physicochemical; conditions: for absorbance intensity after 30 min relative to that measured at 1 min: 10 μM in H2O
Protocol: (§3) Photophysical study. For the absorption and fluorescence spectroscopy, we prepared a stock solution with concentration of 1 mM oligomer and 10% v/v solution of DMSO in H2O. 30 μL of the sonicated suspension of each EO-OPE-1 was diluted into 3 mL solution in a quartz cuvette to give a concentration of 10 μM. Absorption and fluorescence were performed on plate reader (SpectroMax M-5 microplate reader, Molecular Devices) at 24° C. Transient absorption spectra were recorded for EO-OPE-1 samples in both methanol and water. Transient absorption spectra were collected using laser systems that are described elsewhere 1, 2. The optical density was adjusted to 0.7 at the excitation wavelength (355 nm) with the laser energy being 6-7 mJ. Solutions were purged with argon for […] before making transient absorption spectroscopy measurements.

[4] = Transient absorption spectroscopy (triplet state); assay type: physicochemical
Protocol: as §3
Singlet oxygen generation. Excited triplet state (ETS) plays an essential role in the generation of ROS and 1O2. […] Another important point to note is that all members of EO-OPE-1 series underwent fast photobleaching in water during TA experiments (approximately 40-50% reduction in signal intensity). To minimize the error due to photobleaching, fresh samples were prepared and used in each run. […] On the other hand, the triplet lifetimes for EO-OPE-1(C3, A), EO-OPE-1 (C2, A), EO-OPE-1 (C3, S), and EO-OPE-1 (Th, C3, A) are 5.2 μs, 17.9 μs, 18.7 μs, and 7.2 μs, respectively. Based on the above discussions, we would expect C will give a higher yield of 1O2, with lower yields for EO-OPE-1 (C2, A), EO-OPE-1(C3, A), and EO-OPE-1 (C3, S).

[5] = test system: bacteriophage MS2; assay: Phage inactivation, phage titer (PFU), MS2; assay type: cell-based; conditions: 10 ug/ml, UV-light, 1 hour
Protocol: (§4) Bacteriophage Preparation and Titer. E. coli cells were grown in the standard Luria broth. The fresh E. coli culture was inoculated from an overnight culture followed by approximately three hours incubation at 37° C. to the exponential growth phase (O.D.600˜0.5). At this growth phase, the E. coli cells were collected by centrifuge and washed with Escherichia coli minimal medium (Glucose 5 g/L, Na2HPO4 6 g/L, KH2PO4 3 g/L, NH4Cl 1 g/L, NaCl 0.5 g/L, MgSO4, 0.12 g/L, CaCl2 0.01 g/L, pH 7.2) twice. The cell pellet was resuspended with minimal medium. The phage stock solutions were added into their corresponding bacterial host suspensions the phage-bacteria mixture incubated for 15 minutes at 37° C. for infection. The phage-bacteria mixture was transferred into fresh Escherichia coli minimal medium and incubated overnight for viral replication. […] The phage titer was determined by plaque forming units (PFU). […] After 6˜8 hours incubation, the plaque forming units were counted and phage solutions were diluted to 10^6˜10^7 PFU/ml with the minimal medium for further use.
(§5) Phage Inactivation. […] The viral inactivation ability was determined by phage titer as stated above and calculated by log (N0/N), where N is the PFU of the phage solution after exposure to CPEs/OPEs; N0 represents the PFU of corresponding negative control (without CPEs, OPEs or UV-irradiation). […]

[6] = test system: MS2 and T4 bacteriophages; assay: Antiviral activity, general statement; assay type: cell-based
[7] = test system: E.coli; assay: Dead/live assay, biocidal activity against E.coli; assay type: cell-based; conditions: under 365 nm radiation
Protocol: (§6) Dead/live assays were performed to test the biocidal activity of EO-OPE-1(C3, A), EO-OPE-1 (C2, A), EO-OPE-1 (C3, S) and EO-OPE-1 (Th, C3, A) against E.coli, S.epidermis, and S.aureus. E.coli, S.epidermis, and S.aureus were cultured in 50 mL of Difco™ Nutrient broth (LOT 4057492, Becton, Dickinson and Company, Sparks, Md. 21152 USA), Difco™ Nutrient broth (LOT 4057492, Becton, Dickinson and Company, Sparks, Md. 21152 USA), and BBL™ Brain Heart Infusion (LOT 8263271, Becton, Dickinson and Company, Sparks, Md. 21152 USA), respectively, for 18 h at 37° C. under shaking. The bacteria were collected by centrifuging 50 mL of culture at 4,000 rpm in an Eppendorf centrifuge for 15 min at 4° C. […] Bacterial concentrations were measured and normalized using a disposal hemocytometer (INCYTO Co., Ltd), counts being 2.5˜3.0×10^7/mL. […]
(§7) Dead/live assays were carried out using two sets of stains: SYTO 9/Propidium iodide for E.coli and SYTO 24/Propidium iodide for S.epidermis and S.aureus. SYTO 9 and SYTO 24 are cell membrane permeant nucleic acid stains with green (˜498 nm for SYTO 9 and ˜515 nm for SYTO 24) fluorescence and used to stain both live and dead cells; Propidium iodide is a red-fluorescent nucleic acid stain that is membrane impermeable to viable cells but stains DNA or RNA of dead cells with comprised membranes and emits red (˜617 nm) fluorescence, indicating cell death. […]

[8] = test system: S.epidermis; assay: Dead/live assay, biocidal activity against S.epidermis; assay type: cell-based, Staphylococcus epidermis; conditions: under 365 nm radiation
Protocol: as §6, §7

[9] = test system: S.aureus; assay: Dead/live assay, biocidal activity against S.aureus; assay type: cell-based; conditions: for killing of S. aureus: under 365 nm radiation; for light activated death of S. aureus: light and dark conditions, 0.1 to 5 μg/mL, various time points (FIGS. 22-25)
Protocol: as §1, §2
Experiments similar to those described in Example 1 above were performed using TM and OPE1-DABCO against S. Aureus. FIG. 22 is a graph showing TM vs. 7×10^7/mL S. aureus under light and dark conditions at concentrations of 0.1 and 1 μg/mL and at various time points (5, 10, 15, 30, 45, and 60 minutes). FIG. 23 is a graph showing EO-OPE1-DABCO vs 6×10^7/mL S. aureus under light and dark conditions at different concentrations of 0.1, 1, and 5 μg/mL and at various time points. FIG. 24 is a graph showing EO-OPE1-DABCO vs S. Aureus under light and dark conditions at a concentration of 1 μg/mL and at various time points. FIG. 25 is a graph showing EO-OPE1-DABCO vs S. Aureus under light and dark conditions at different concentrations of 0.1 and 1 μg/mL and at various time points.

[10] = test system: bacteriophage T4; assay: Phage inactivation, phage titer (PFU), T4; assay type: cell-based; conditions: 10 ug/ml, in the dark, 1 hour
Protocol: as §4, §5

[11] = test system: T4 phage; assay: TEM of viral morphology damage, T4; set-up: species or system Bacteriophage T4; conditions: 50 ug/ml, dark and irradiated (FIGS. 33, 35, 37, 39)
Protocol: (§8) Transmission Electron Microscopy. High concentration of model viruses (˜10^11 PFU/ml for T4 phage, ˜10^12 PFU/ml for MS2 phage) and CPE/OPE (50 ug/ml) was used for TEM imaging (TEM images were generated in the UNM Electron Microscopy Shared Facility using a Hitachi H7500 transmission electron microscope.) Phage samples were prepared by adding 5 uL phage solutions onto carbon-coated copper grids (freshly cleaned by plasma cleaner) and standing for 2 minutes then rinsing with pure water. The negative stain, 2% aqueous solution of uranyl acetate, was adding onto the grids and standing for 2 minutes, the excess stain was removed by filter paper. The grid was dried in air.

[12] = test system: MS2 phage; assay: TEM of viral morphology damage, MS2; set-up: species or system Bacteriophage MS2; conditions: 50 ug/ml, dark and irradiated (FIGS. 34, 36, 38, 40)
Protocol: as §8

## C[N+](C)(C)CCOc1ccc(C#Cc2ccc(C#Cc3ccc(OCC[N+](C)(C)C)cc3)cc2)cc1.[I-].[I-] [EO-OPE-1 (C2, A)]
[1]
  light-induced biocidal activity: dramatic light-induced biocidal activity
[2]
  solubility in CH3OH: moderately soluble
  solubility in DMF and DMSO: quite soluble
  solubility in water: poorly soluble
[3]
  absorbance intensity after 30 min relative to that measured at 1 min: the same
[3]; in water
  Fluorescence quantum yields(Φf)*: 0.59 ± 0.05
[4]
  transient absorption (TA) intensity, comparison in words: comparable
[4]; in H2O
  τ3/intensity in H2O: 0.065
  τ3/λmax(nm) in H2O: 541 nm
  τ3/μs in H2O (triplet lifetime): 17.9 μs and 18.7 μs

## C[N+](C)(C)CCCOc1ccc(C#Cc2ccc(C#Cc3ccc(OCCC[N+](C)(C)C)cc3)cc2)cc1.[I-].[I-] [EO-OPE-1 (C3, A)]
[1]
  light-induced biocidal activity: dramatic light-induced biocidal activity
[2]
  solubility in CH3OH: moderately soluble
  solubility in DMF and DMSO: quite soluble
  solubility in water: poorly soluble
[3]
  absorbance intensity after 30 min relative to that measured at 1 min: around 2 times
[3]; in water
  Fluorescence quantum yields(Φf)*: 0.52 ± 0.05
[3]; in water; A)
  Fluorescence quantum yields(Φf)*: 0.59
[4]
  transient absorption (TA) intensity, comparison in words: comparable
[4]; in H2O
  τ3/intensity in H2O: 0.07
  τ3/λmax(nm) in H2O: 545 nm
  τ3/μs in H2O (triplet lifetime): 17.9 μs
[4]; in H2O; A)
  τ3/μs in H2O (triplet lifetime): 5.2 μs
[5]
  inactivation of MS2 phage in the presence of UV irradiation: enhanced inactivation
[6]
  antiviral activity: significant antiviral activity

## O=S(=O)([O-])CCCOc1ccc(C#Cc2ccc(C#Cc3ccc(OCCCS(=O)(=O)[O-])cc3)cc2)cc1.[Na+].[Na+] [EO-OPE-1 (C3, S)]
[7]
  killing of E. coli: kill
[8]
  killing of S. epidermis: kill
[9]
  killing of S. aureus: kill
[1]
  light-induced biocidal activity: dramatic light-induced biocidal activity; also recorded: relatively poor light-induced biocidal activity
[2]
  solubility in CH3OH: moderately soluble
  solubility in DMF and DMSO: quite soluble
  solubility in water: poorly soluble
[3]
  absorbance intensity after 30 min relative to that measured at 1 min: 1.5 times
[3]; in water
  Fluorescence quantum yields(Φf)*: 0.46 and 0.50 ± 0.07
[4]
  transient absorption (TA) intensity, comparison in words: comparable
[4]; in H2O
  τ3/intensity in H2O: 0.06
  τ3/λmax(nm) in H2O: 543 nm

## C[N+](C)(C)CCCOc1ccc(C#Cc2ccc(C#Cc3ccc(OCCC[N+](C)(C)C)cc3)s2)cc1.[I-].[I-] [EO-OPE-1 (Th, C3, A)]
[7]
  killing of E. coli: kill
[8]
  killing of S. epidermis: kill
[9]; concentration as low as 5 ng/mL, half hour irradiation
  log killing against S. aureus: 5 log
[9]
  killing of S. aureus: kill
[1]
  light-induced biocidal activity: dramatic light-induced biocidal activity
[2]
  solubility in CH3OH: moderately soluble
  solubility in DMF and DMSO: quite soluble
  solubility in water: poorly soluble
[3]
  absorbance intensity after 30 min relative to that measured at 1 min: the same
[3]; in water
  Fluorescence quantum yields(Φf)*: 0.50 and 0.46 ± 0.02
[4]
  transient absorption (TA) intensity, comparison in words: highest TA intensity
[4]; in H2O
  τ3/intensity in H2O: 0.15
  τ3/λmax(nm) in H2O: 510 nm
  τ3/μs in H2O (triplet lifetime): 7.2 μs
[10]
  dark antiviral activity against T4 phage: significant dark antiviral activity
[11]
  morphology of treated T4 phage by TEM: serious damage
[12]
  morphology of treated MS2 phage by TEM: Obvious morphology change
[6]
  antiviral activity: significant antiviral activity

## CCCCCC[N+]12CC[N+](CCCOc3ccc(C#Cc4ccc(C#Cc5ccc(OCCC[N+]67CC[N+](CCCCCC)(CC6)CC7)cc5)cc4)cc3)(CC1)CC2.[Br-].[Br-].[Br-].[Br-] [EO-OPE-1-DABCO]
[9]
  light activated death of S. aureus: light activated death is clearly demonstrated

## COc1cc(C#Cc2ccc(C#Cc3ccc(OCCC[N+](C)(C)C)cc3)cc2)cc(OC)c1OC.[I-] [TM]
[9]
  light activated death of S. aureus: light activated death is clearly demonstrated
